# Measured values from publication PMC12115184, “Metformin-Induced Apoptosis Is Mediated Through Mitochondrial VDAC1” (Pharmaceuticals, 2025).
# Target: T1, VDAC1 (Rattus norvegicus, UniProt Q9Z2L0)
# T1 construct: VDAC1 purified from rat liver mitochondria (channel conductance)
# Assay: planar lipid bilayer conductance of reconstituted purified VDAC1; MST with N-terminal peptide
# Type: biochemical
# T1 sequence (Q9Z2L0 2-283): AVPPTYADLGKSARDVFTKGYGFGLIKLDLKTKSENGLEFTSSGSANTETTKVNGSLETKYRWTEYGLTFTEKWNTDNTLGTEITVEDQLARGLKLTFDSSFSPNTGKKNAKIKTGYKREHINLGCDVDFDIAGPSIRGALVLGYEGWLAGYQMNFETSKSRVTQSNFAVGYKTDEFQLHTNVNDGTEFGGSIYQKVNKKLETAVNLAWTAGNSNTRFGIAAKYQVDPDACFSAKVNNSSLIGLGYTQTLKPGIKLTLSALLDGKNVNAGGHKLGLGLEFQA
smiles,measurement,value
"CN(C)C(=N)N=C(N)N [metformin, 3-(diaminomethylidene)-1,1-dimethylguanidine]",planar lipid bilayer conductance of reconstituted purified VDAC1; MST with N-ter,Metformin reduced VDAC1 conductance only after the channel was exposed to a high voltage step.
